Assay results reported in patent US12285012B2, “Compositions comprising pyridine carboxylate herbicides with acetolactate synthase (ALS) inhibitor herbicides” (Corteva Agriscience LLC, priority 2018, dated 2025).

Tests used:
[1] = tested on: ivyleaf morningglory (IPOHE, Ipomoea hederacea); experiment: Greenhouse postemergence herbicidal effect; assay type: in vivo; conditions: 8.75 g/ha
Excerpt: (§1) Seeds of the desired test plant species were planted in a 90:10% v/v (volume/volume) mixture of PRO-MIX® BX (Premier Tech Horticulture, Quakertown, PA, USA) and PROFILE® GREENS GRADE™ (Profile Products LLC, Buffalo Grove, IL, USA) planting mixture, which typically has a pH of 5.2 to 6.2 and an organic matter content of at least 50 percent, in plastic pots with a surface area of 103.2 square centimeters (cm^2). In some aspects, to ensure good germination and healthy plants, a fungicide treatment and/or other chemical or physical treatment was applied. The plants were grown for 7-36 days (d) in a greenhouse with an approximate 14-hour (h) photo-period which was maintained at about 23° C. during the day and 22° C. during the night. Nutrients and water were added on a regular basis and supplemental lighting was provided with overhead metal halide 1000-Watt lamps as necessary. The plants were employed for testing when they reached the second or third true leaf stage.
(§2) Emulsifiable concentrates of each of each pyridine carboxylate herbicide (Compound A or Compound B) were prepared at 100 grams acid equivalent per liter (g ae/L). The emulsifiable concentrates also included a safener, cloquintocet-mexyl, at 120 grams active ingredient per liter (g ai/L), unless otherwise noted below. An aliquot of each emulsifiable concentrate was placed in a 25 mL glass vial and diluted with an aqueous mixture of 1.25% (v/v) ACTIROB® B esterified rapeseed oil (Bayer Crop Science, Research Triangle Park, NC, USA) or MSO® Concentrate with LECI-TECH® methylated soybean oil (Loveland Products, Loveland, CO, USA) to obtain concentrated stock solutions at the highest application rate for each herbicide, based upon a 12 milliliter (mL) application volume at a rate of 187 liters per hectare (L/ha). The concentrated stock solutions were further diluted with an aqueous mixture of 1.25% v/v ACTIROB® B or MSO® Concentrate with LECI-TECH® to obtain stock solutions at reduced application rates for each herbicide. Spray solutions of the herbicide combinations (Compound A or Compound B plus ALS herbicide) were prepared by adding weighed amounts or aliquots of the ALS herbicides to the stock solutions of Compound A or Compound B to form 12-mL spray solutions in two- or three-way combinations.
(§3) The spray solutions were applied to the plant material with an overhead Mandel track sprayer equipped with 8002E nozzles calibrated to deliver 187 L/ha over an application area of 0.503 square meters (m^2) at a spray height of 18 inches (43 centimeters (cm)) above the average plant canopy. Control plants were sprayed in the same manner with the solvent blank. All pyridine carboxylate herbicide (component a) application rates are given as “g ae/ha” and all ALS inhibitor (component b) application rates are given as “g ai/ha.”
(§4) The treated plants and control plants were placed in a greenhouse as described above and watered by sub-irrigation to prevent wash-off of the test compounds. After 20-22 d, the condition of the test plants as compared with that of the control plants was determined visually and scored on a scale of 0 to 100 percent where 0 corresponds to no injury and 100 corresponds to complete kill.

[2] = tested on: broad-leaf dock (RUMOB, Rumex obtusifolius); experiment: Greenhouse postemergence herbicidal effect; assay type: in vivo; conditions: 8.75 g/ha
Excerpt: as §1, §2, §3, §4

[3] = tested on: soybean (GLXMA, Glycine max); experiment: Greenhouse postemergence herbicidal effect; assay type: in vivo; conditions: 8.75 g/ha
Excerpt: as §1, §2, §3, §4

[4] = tested on: common sunflower (HELAN, Helianthus annuus); experiment: Greenhouse postemergence herbicidal effect; assay type: in vivo; conditions: 8.75 g/ha
Excerpt: as §1, §2, §3, §4

[5] = tested on: velvetleaf (ABUTH, Abutilon theophrasti); experiment: Greenhouse postemergence herbicidal effect; assay type: in vivo; conditions: 8.75 g/ha
Excerpt: as §1, §2, §3, §4

[6] = tested on: kochia (KCHSC, Kochia scoparia); experiment: Greenhouse postemergence herbicidal effect; assay type: in vivo
Procedure: as §1, with “In some aspects, to ensure good germination and healthy plants, a fungicide treatment and/or other chemical or physical treatment was applied.” left out
as §2, §3, §4

[7] = tested on: common lambsquarters (CHEAL, Chenopodium album L.); experiment: Greenhouse postemergence herbicidal effect; assay type: in vivo
Procedure: as §1, with “In some aspects, to ensure good germination and healthy plants, a fungicide treatment and/or other chemical or physical treatment was applied.” left out
as §2, §3, §4

[8] = tested on: Canadian thistle (CIRAR, Cirsium arvense); experiment: Greenhouse postemergence herbicidal effect; assay type: in vivo
Procedure: (§5) The plants were grown for 7-36 days (d) in a greenhouse with an approximate 14-hour (h) photo-period which was maintained at about 23° C. during the day and 22° C. during the night. Nutrients and water were added on a regular basis and supplemental lighting was provided with overhead metal halide 1000-Watt lamps as necessary. The plants were employed for testing when they reached the second or third true leaf stage.
(§6) The emulsifiable concentrates also included a safener, cloquintocet-mexyl, at 120 grams active ingredient per liter (g ai/L), unless otherwise noted below.
(§7) Control plants were sprayed in the same manner with the solvent blank. All pyridine carboxylate herbicide (component a) application rates are given as “g ae/ha” and all ALS inhibitor (component b) application rates are given as “g ai/ha.”
as §4

[9] = tested on: wild mustard (SINAR, Sinapis arvensis); experiment: Greenhouse postemergence herbicidal effect; assay type: in vivo
Procedure: as §5, §6, §7, §4

[10] = tested on: chickweed (STEME, Stellaria media); experiment: Greenhouse postemergence herbicidal effect; assay type: in vivo
Procedure: as §5, §6, §7, §4

[11] = tested on: winter rape (BRSNW, Brassica napus); experiment: Greenhouse postemergence herbicidal effect; assay type: in vivo
Procedure: as §5, §6, §7, §4

[12] = tested on: wild chamomile (MATCH, Matricaria chamomilla); experiment: Greenhouse postemergence herbicidal effect; assay type: in vivo
Procedure: as §5, §6, §7, §4

[13] = tested on: pigweed (AMARE, Amaranthus retroflexus); experiment: Greenhouse postemergence herbicidal effect; assay type: in vivo
Procedure: as §5, §6, §7, §4

[14] = tested on: wild buckwheat (POLCO, Polygonum convolvulus); experiment: Greenhouse postemergence herbicidal effect; assay type: in vivo
Procedure: as §5, §6, §7, §4

[15] = tested on: wild pansy (VIOTR, Viola tricolor); experiment: Greenhouse postemergence herbicidal effect; assay type: in vivo
Procedure: as §5, §6, §7, §4

spring barley (HORVS) = assay type: in vivo, Hordeum vulgare
Procedure: as §5, §6, §7, §4

winter wheat (TRZAW) = experiment: Greenhouse postemergence crop phytotoxicity; assay type: in vivo, Triticum aestivum; conditions: Pyroxsulam 10 g/ha
Excerpt: as §1
as §2, with “combinations. […]” for “combinations.”
as §4

winter barley (HORVW) = experiment: Greenhouse postemergence crop phytotoxicity; assay type: in vivo, Hordeum vulgare; conditions: Pyroxsulam 10 g/ha
Excerpt: as §1
as §2, with “combinations. […]” for “combinations.”
as §4

spring wheat (TRZAS) = assay type: in vivo, Triticum aestivum
Procedure: as §5, §6, §7, §4

[16] = tested on: cleavers (GALAP, Galium aparine); experiment: Greenhouse postemergence herbicidal effect; assay type: in vivo; conditions: Pyroxsulam 10 g/ha
Procedure: as §5, §6, §7, §4

[17] = tested on: purple deadnettle (LAMPU, Lamium purpureum); experiment: Greenhouse postemergence herbicidal effect; assay type: in vivo; conditions: Pyroxsulam 10 g/ha
Procedure: as §5, §6, §7, §4

[18] = tested on: bird's-eye speedwell (VERPE, Veronica persica); experiment: Greenhouse postemergence herbicidal effect; assay type: in vivo; conditions: Pyroxsulam 10 g/ha
Procedure: as §5, §6, §7, §4

[19] = tested on: Russian thistle (SASKR, Salsola kali); experiment: Greenhouse postemergence herbicidal effect; assay type: in vivo; conditions: Pyroxsulam 10 g/ha
Procedure: as §5, §6, §7, §4

[20] = tested on: corn poppy (PAPRH, Papaver rhoeas); experiment: Greenhouse postemergence herbicidal effect; assay type: in vivo; conditions: Pyroxsulam 10 g/ha
Procedure: as §5, §6, §7, §4

[21] = tested on: false chamomile (MATIN, Matricaria inodora); experiment: Greenhouse postemergence herbicidal effect; assay type: in vivo; conditions: Pyroxsulam 10 g/ha
Procedure: as §5, §6, §7, §4

[22] = tested on: pineapple weed (MATMT, Matricaria discoidea); experiment: Greenhouse postemergence herbicidal effect; assay type: in vivo; conditions: Pyroxsulam 10 g/ha
Procedure: as §5, §6, §7, §4

[23] = tested on: R-PAPRH = Papaver rhoeas (corn poppy), herbicide-resistant; experiment: Greenhouse postemergence herbicidal effect; assay type: in vivo; conditions: Pyroxsulam 10 g/ha
Procedure: as §5, §6, §7, §4

[24] = tested on: ivyleaf speedwell (VERHE, Veronica hederifolia); experiment: Greenhouse postemergence herbicidal effect; assay type: in vivo; conditions: Pyroxsulam 10 g/ha
Procedure: as §5, §6, §7, §4

[25] = tested on: shepherd's purse (CAPBP, Capsella bursa-pastoris); experiment: Greenhouse postemergence herbicidal effect; assay type: in vivo; conditions: Pyroxsulam 10 g/ha
Procedure: as §5, §6, §7, §4

[26] = tested on: cornflower (CENCY, Cyanus segetum); experiment: Greenhouse postemergence herbicidal effect; assay type: in vivo; conditions: Pyroxsulam 10 g/ha
Procedure: as §5, §6, §7, §4

[27] = tested on: field violet (VIOAR, Viola arvensis); experiment: Greenhouse postemergence herbicidal effect; assay type: in vivo; conditions: Pyroxsulam 10 g/ha
Procedure: as §5, §6, §7, §4

[28] = tested on: field chamomile (ANTAR, Anthemis arvensis); experiment: Greenhouse postemergence herbicidal effect; assay type: in vivo; conditions: Pyroxsulam 10 g/ha
Procedure: as §5, §6, §7, §4

## CCS(=O)(=O)c1nc2ccccn2c1S(=O)(=O)NC(=O)Nc1nc(OC)cc(OC)n1 [Sulfosulfuron, sulfosulfuron]
[1]
  % visual injury, Obs: 78%
[2]
  % visual injury, Obs: 0%
[3]
  % visual injury, Obs: 85%
[4]
  % visual injury, Obs: 100%
[5]
  % visual injury, Obs: 30%
[6]; Bassia scoparia, post-emergence, 8.75 g/ha, read-out: % visual injury, Obs
  pest or weed control at 8.75 g/ha: 0%
[6]; Sulfosulfuron 140 g/ha
  % visual injury: 8%
[7]; 8.75 g/ha
  % visual injury, Obs: 0%
[7]; Sulfosulfuron 140 g/ha
  % visual injury: 43%
[8]; Cirsium arvense, post-emergence, 8.75 g/ha, read-out: % visual injury, Obs
  pest or weed control at 8.75 g/ha: 5%
[8]; Sulfosulfuron 140 g/ha
  % visual injury: 45%
[9]; Sulfosulfuron 140 g/ha
  % visual injury: 99%
[10]; 8.75 g/ha
  % visual injury, Obs: 53%
[11]; Sulfosulfuron 140 g/ha
  % visual injury: 98%
[12]; Sulfosulfuron 140 g/ha
  % visual injury: 73%
[13]; 8.75 g/ha
  % visual injury, Obs: 40%
[13]; Sulfosulfuron 140 g/ha
  % visual injury: 88%
[14]; 8.75 g/ha
  % visual injury, Obs: 5%
[14]; Sulfosulfuron 140 g/ha
  % visual injury: 83%
[15]; 8.75 g/ha
  % visual injury, Obs: 55%

## pyroxsulam
Spring barley (HORVS); Pyroxsulam 10 g/ha
  % visual injury: 0%
Spring barley (HORVS); Pyroxsulam 15 g/ha
  % visual injury Obs: 0%
Winter wheat (TRZAW)
  % visual injury: 0%
Winter barley (HORVW)
  % visual injury: 0%
Spring wheat (TRZAS); Pyroxsulam 10 g/ha
  % visual injury: 0%
Spring wheat (TRZAS); Pyroxsulam 15 g/ha
  % visual injury Obs: 0%
Spring wheat (TRZAS); TRZAS, Pyroxsulam 15 g/ha
  Obs % visual injury: 0%
[6]; KCHSC, Pyroxsulam 15 g/ha
  Obs % visual injury: 13%
[6]; Pyroxsulam 10 g/ha
  % visual injury: 30%
[6]; Pyroxsulam 15 g/ha
  % visual injury Obs: 55%
[7]; Pyroxsulam 15 g/ha
  % visual injury Obs: 73%
[8]; Pyroxsulam 10 g/ha
  % visual injury: 75%
[8]; Pyroxsulam 15 g/ha
  % visual injury Obs: 48%
[9]; Pyroxsulam 10 g/ha
  % visual injury: 99%
[9]; Pyroxsulam 15 g/ha
  % visual injury Obs: 73%
[10]; Pyroxsulam 10 g/ha
  % visual injury: 100%
[11]; Pyroxsulam 10 g/ha
  % visual injury: 99%
[11]; Pyroxsulam 15 g/ha
  % visual injury Obs: 68%
[16]
  % visual injury: 60%
[17]
  % visual injury: 50%
[18]
  % visual injury: 75%
[19]
  % visual injury: 100%
[12]; Pyroxsulam 10 g/ha
  % visual injury: 60%
[12]; Pyroxsulam 15 g/ha
  % visual injury Obs: 53%
[20]
  % visual injury: 5%
[13]; Pyroxsulam 15 g/ha
  % visual injury Obs: 98%
[21]
  % visual injury: 65%
[22]
  % visual injury: 50%
[23]
  % visual injury: 10%
[14]; Pyroxsulam 10 g/ha
  % visual injury: 93%
[14]; Pyroxsulam 15 g/ha
  % visual injury Obs: 94%
[24]
  % visual injury: 70%
[15]; Pyroxsulam 10 g/ha
  % visual injury: 85%
[25]
  % visual injury: 90%
[26]
  % visual injury: 70%
[27]
  % visual injury: 80%
[28]
  % visual injury: 60%
